This passage reports IC50 results from article PMC8760490, “Discovery of novel furanylbenzamide inhibitors that target oncogenic tyrosine phosphatase SHP2 in leukemia cells” (The Journal of Biological Chemistry, 2021).

The target of this test is T1, full-length SHP2-E76K oncogenic mutant (Homo sapiens, UniProt Q06124, E76K).
T1 construct: Recombinant human full-length SHP2 (1–594) WT and E76K mutants; made in house
T1 sequence (Q06124 1-593 E76K): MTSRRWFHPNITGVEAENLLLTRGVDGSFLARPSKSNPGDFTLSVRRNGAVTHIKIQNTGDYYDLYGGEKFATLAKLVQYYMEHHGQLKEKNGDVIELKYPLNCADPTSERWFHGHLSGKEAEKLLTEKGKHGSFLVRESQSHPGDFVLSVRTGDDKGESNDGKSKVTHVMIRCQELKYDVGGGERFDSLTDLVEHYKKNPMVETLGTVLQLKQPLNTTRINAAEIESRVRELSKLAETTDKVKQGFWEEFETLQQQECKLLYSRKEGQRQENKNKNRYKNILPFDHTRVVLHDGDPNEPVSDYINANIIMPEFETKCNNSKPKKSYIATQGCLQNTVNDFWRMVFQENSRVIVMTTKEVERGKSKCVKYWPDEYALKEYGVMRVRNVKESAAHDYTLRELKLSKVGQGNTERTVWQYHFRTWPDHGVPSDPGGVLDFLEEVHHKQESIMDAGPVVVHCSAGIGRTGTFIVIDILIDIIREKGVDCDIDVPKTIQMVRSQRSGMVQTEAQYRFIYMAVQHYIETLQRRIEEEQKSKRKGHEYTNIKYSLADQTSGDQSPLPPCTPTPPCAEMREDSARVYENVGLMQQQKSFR
Kind of test: DiFMUP fluorescence phosphatase inhibition assay, SHP2-E76K. It counts as biochemical. To be noted: DiFMUP at Km (20 μM), 10-point dose–response, pH 6.0. The text has this: To test the synthesized compounds for their potential to inhibit SHP2 activity, a fluorescence intensity-based assay using 6,8-difluoro-4-methylumbelliferyl phosphate (DiFMUP) as the substrate was adapted for three recombinant SHP2 constructs: (1) the SHP2 catalytic domain (SHP2cat; residues 248–527), (2) the full-length SHP2-E76K oncogenic mutant, and (3) the full-length SHP2 WT (SHP2-WT). The recombinant SHP2 proteins were expressed and purified as described previously ([36]). A dually phosphorylated peptide derived from the insulin receptor substrate 1 (IRS-1) served as a surrogate binding protein and was used to activate SHP2-WT ([30], [36]). […] Michaelis–Menten experiments to determine the DiFMUP Michaelis–Menten constant (Km) for each SHP2 construct were performed as described previously ([36]) and yielded the following values: SHP2-WT, Km = 60 μM; SHP2-E76K, Km = 20 μM; and SHP2cat, Km = 20 μM. Relative maximum rates (Vmax) of the DiFMUP reactions expressed as relative fluorescence units per minute (RFU/min) were as follows: SHP2-WT, Vmax = 871 RFU/min; SHP2-E76K, Vmax = 2730 RFU/min; and SHP2cat, Vmax = 2912 RFU/min. IC50 values for each compound were determined from initial rates in 10-point dose–response assays using DiFMUP at a concentration corresponding to its Km value for the respective SHP2 construct. […] Replacements for the benzothiophenone were explored using analog #10.
Recombinant human full-length SHP2 (1–594) WT and E76K mutants, as well as the SHP2cat (248–527), were expressed and purified as described before ([36], [41]). Recombinant human PTP1B (1–300) and the codon-optimized STEP (280–566) catalytic domains were cloned into PET-15b and expressed as N-His-tagged fusion proteins. For expression, transformed BL21(DE3) cells were grown and induced similar as described for SHP2. Collected cells were resuspended in lysis buffer (25 mM Tris, pH 7.5, 300 mM NaCl, 50 mM imidazole, and 10% glycerol) with 100 mg/l RNaseA and were lysed with two passages using a microfluidizer. The lysate was clarified by centrifugation at 15,000g for 50 min and applied to nickel–nitrilotriacetic acid resin. The column resin was washed, and the PTP1B or STEP protein was eluted in lysis buffer at 300 mM imidazole. The PTP1B or STEP protein was further purified by S75 size-exclusion chromatography in 50 mM Tris, pH 7.5, 50 mM NaCl. The eluted peak fractions were supplemented with tris(2-carboxyethyl)phosphine to 10 mM, concentrated by ultrafiltration, and stored at −80 °C. The purified yield of PTP1B was 33 mg/l cell culture; the yield of STEP was 16 mg/l cell culture.
SHP2 inhibitors were tested at RT in a 384-well plate format standard phosphatase fluorescence intensity assay using DiFMUP (Invitrogen/Thermo Fisher Scientific) as a substrate and a total reaction volume of 25 μl. SHP2 inhibitors or vehicle (DMSO) were spotted in triplicate into a black Greiner FLUOTRAC 200 384-well microplate (catalog no.: 781076; Greiner) for a 10-point dose–response assay using an Echo 555 Liquid Handler (Labcyte, Inc). PTP working solutions were prepared at a 0.625 nM concentration (for a final concentration of 0.5 nM) in buffer containing 50 mM Bis–Tris, pH 6.0, 50 mM NaCl, 5 mM DTT, and 0.01% Tween-20. Prior to the assay, a dually phosphorylated IRS-1 peptide (625 nM [500 nM final] ([30])) was added to full-length WT SHP2 working solutions and incubated for 20 min. DiFMUP working solutions at 5× final concentration were prepared in 50 mM Bis–Tris, pH 6.0, 50 mM NaCl, and 0.01% Tween-20. About 20 μl of PTP working solution was dispensed into the microplate and incubated with inhibitor for 20 min at RT. […] The reaction was initiated by addition of 5 μl DiFMUP working solutions. Fluorescence intensity was measured in kinetic mode (every minute for 7 or 10 min) using a Tecan Spark Multimode Microplate Reader (Tecan) with an excitation wavelength of 360 nm and an emission wavelength of 460 nm. […]
For `Nc1ccc(NC(=O)c2cc(-c3ccc(/C=C4\Sc5ccccc5C4=O)o3)ccc2O)cc1` [SBI-2130, (Z)-N-(4-Aminophenyl)-2-hydroxy-5-(5-((3-oxobenzo[b]thiophen-2(3H)-ylidene)methyl)furan-2-yl)benzamide], half-maximal inhibition (IC50) was put at 480 nM.

Consider `O=C1CCCC1=Cc1ccc(-c2ccc(O)c(C(=O)Nc3ccccc3)c2)o1` [SBI-3192, 2-Hydroxy-5-(5-((2-oxocyclopentylidene)methyl)furan-2-yl)-N-phenylbenzamide], for which it took 2300 nM to reach half-maximal inhibition (IC50).

As to `N#Cc1cc(-c2ccc(/C=C3\Sc4ccccc4C3=O)o2)ccc1O` [SBI-3404, (Z)-2-Hydroxy-5-(5-((3-oxobenzo[b]thiophen-2(3H)-ylidene)methyl)furan-2-yl)benzonitrile], the half-inhibitory concentration (IC50) (commonly the midpoint of a concentration-inhibition curve) was 4200 nM.

Turning to `O=C1/C(=C/c2ccc(-c3ccc(O)c(-c4nn[nH]n4)c3)o2)Sc2ccccc21` [SBI-3405, (Z)-2-((5-(4-Hydroxy-3-(2H-tetrazol-5-yl)phenyl)furan-2-yl)methylene)benzo[b]thiophen-3(2H)-one], the IC50 was determined as 4100 nM. The IC50 values of the last two compounds are within 1.5-fold of each other.

The compound `O=C(Nc1ccccc1)c1cc(-c2ccc(/C=C3\Sc4ccccc4C3=O)o2)ccc1O` [SBI-4668, (Z)-2-Hydroxy-5-(5-((3-oxobenzo[b]thiophen-2(3H)-ylidene)methyl)furan-2-yl)-N-phenylbenzamide] showed a half-inhibitory concentration (IC50) of 1800 nM. Against the preceding compound, the IC50 is about 2.3-fold lower.
